Values quoted from earlier work, collected in patent US9066965B1, “Purified limonin glucoside for prevention and treatment of chronic diseases” (The United States of America, as represented by the …, priority 2012, dated 2015).

Legend:
TGRS = molecular target: T1, TGRS (Homo sapiens, UniProt Q8TDU6); details: cited from earlier work
T1 sequence (Q8TDU6 1-330): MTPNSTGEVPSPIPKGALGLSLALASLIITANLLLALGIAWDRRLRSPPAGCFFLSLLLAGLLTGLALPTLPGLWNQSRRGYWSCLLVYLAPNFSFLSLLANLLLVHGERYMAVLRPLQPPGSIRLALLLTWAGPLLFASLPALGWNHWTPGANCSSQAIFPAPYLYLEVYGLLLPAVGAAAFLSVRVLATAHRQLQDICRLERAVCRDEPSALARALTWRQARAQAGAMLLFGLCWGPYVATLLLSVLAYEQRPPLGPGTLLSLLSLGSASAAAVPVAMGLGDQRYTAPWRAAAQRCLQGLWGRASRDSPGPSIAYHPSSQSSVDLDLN

[1] = 0.2% in diet, mice fed high fat diets; cited from earlier work
[2] = purified flavonoids, hypercholesterolemic men and women; cited from earlier work
Hep G2 cell line = details: cited from earlier work

Structure (SMILES) | activation of TGRS (TGRS) | high fat diet induced obesity and hyperglycemia [1] | effect on serum total- and LDL cholesterol [2] | Apo B secretion (Hep G2 cell line)
CC(=O)O[C@H]1CC(=O)OC(C)(C)[C@@H]2CC(=O)[C@]3(C)[C@H](CC[C@@]4(C)[C@H](c5ccoc5)OC(=O)[C@H]5O[C@]543)[C@@]12C [nomilin] | activating | prevented | – | –
COc1ccc([C@@H]2CC(=O)c3c(O)cc(O[C@@H]4O[C@H](CO[C@@H]5O[C@@H](C)[C@H](O)[C@@H](O)[C@H]5O)[C@@H](O)[C@H](O)[C@H]4O)cc3O2)cc1O [hesperidin] | – | – | did not alter | –
CC1(C)O[C@H]2CC(=O)OC[C@]23[C@H]2CC[C@@]4(C)[C@H](c5ccoc5)OC(=O)[C@H]5O[C@]54[C@]2(C)C(=O)C[C@@H]13 [limonin] | did not activate | – | – | significantly decreased
C[C@@H]1O[C@@H](O[C@H]2[C@H](Oc3cc(O)c4c(c3)O[C@H](c3ccc(O)cc3)CC4=O)O[C@H](CO)[C@@H](O)[C@@H]2O)[C@H](O)[C@H](O)[C@H]1O [naringin] | – | – | did not alter | –
